Source: publication PMC11249953, “c-KIT inhibitors reduce pathology and improve behavior in the Tg(SwDI) model of Alzheimer’s disease” (Life Science Alliance, 2024)

Tests used:
[1] = system: IBA1+ microglia of TgAPP mice; assay: IBA1 staining and microglial morphological analysis (Imaris); assay type: in vivo, mouse; details: BK40143 5 mg/kg, BK40197 45 mg/kg, vs DMSO
Protocol: Staining for amyloid-beta and microglia was performed on left brain hemispheres collected from treated and untreated mice. Brains were cryoprotected with 30% sucrose and sectioned at 30 μm on a cryostat. Sections were then treated with an anti-amyloid beta (6E10, cat. #803001; BioLegend) or anti-IBA1 (cat. # 018-28523; Wako Chemicals) primary followed by either an AlexaFluor secondary (Thermo Fisher Scientific) and DAPI mounting medium (Vector Labs) or a biotinylated secondary and 3, 3′ diaminobenzidine chromogen substrate. Slides were imaged on either a Leica DMi8 light microscope or a Zeiss LSM 800 confocal microscope.
63x z-stack images (0.19 μm intervals) of IBA1 stained microglia from treated and untreated mice were collected on a Zeiss LSM confocal microscope. 3D images were then analyzed using the “surfaces” plug-in in Imaris 10.0 to ascertain cell-surface area. Individual microglial surface areas were calculated in the advanced statistics tab of Imaris.

MTOR = target: T1, MTOR (Homo sapiens, UniProt P42345); assay: KINOMEscan competition binding, MTOR; details: 10 µM compound; for remaining binding at 10 µM: lower = stronger binding, read-out: MTOR %Ctrl @ 10000nM (POC)
T1 construct: DNA label for qPCR read-out (T7 phage fusion or DNA tag); purchased Eurofins DiscoverX Corporation; host or cells: T7 phage in E. coli (BL21-derived) or HEK-293
Protocol: (§1) The KINOMEscan screening platform (Eurofins DiscoverX Corporation) was performed using active site-directed competition binding assay to quantitatively measure interactions between BK40143 and BK40197 and more than 450 human kinases and disease relevant mutant variants. […] Screening “hits” are identified by measuring the amount of kinase captured in test (BK40143 and BK40197) versus control samples by using a quantitative and ultra-sensitive qRT-PCR method that detects the associated DNA label. BK40143 and BK40197 were screened at 10 µM concentration, and results for primary screen binding interactions were reported as “% Ctrl” (POC), where lower numbers indicate stronger hits and calculated as follows: [test compound signal−positive control signal/negative control signal−positive control signal]×100
(§2) negative control = DMSO (100% Ctrl)
(§3) positive control = control compound (0% Ctrl)
(§4) Based on screening data from of profiled compounds, a proportional relationship between primary screening results and corresponding compound/target affinities can be described as binding constants (Kd values) for the indicated ranges of POC values with tighter binding (higher affinity) interactions associated with lower POC values and weaker binding (lower affinity) associated with higher POC values. Briefly, kinase-tagged T7 phage strains were grown in parallel in 24-well blocks in an E. coli host derived from the BL21 strain. E. coli were grown to log-phase and infected with T7 phage from a frozen stock (multiplicity of infection = 0.4) and incubated with shaking at 32°C until lysis (90–150 min). The lysates were centrifuged (6,000g) and filtered (0.2 μm) to remove cell debris. The remaining kinases were produced in HEK-293 cells and subsequently tagged with DNA for qRT-PCR detection. Streptavidin-coated magnetic beads were treated with biotinylated small molecule ligands for 30 min at RT to generate affinity resins for kinase assays. The liganded beads were blocked with excess biotin and washed with blocking buffer (1% BSA, 0.05% Tween 20, 1 mM DTT; SeaBlock [Pierce]) to remove unbound ligand and to reduce non-specific phage binding. Binding reactions were assembled by combining kinases, liganded affinity beads, and test compounds in 1x binding buffer (20% 0.17x PBS, 0.05% Tween 20, 6 mM DTT; SeaBlock). Test compounds were prepared as 100x stocks in 100% DMSO and directly diluted into the assay. All reactions were performed in polypropylene 384-well plates in a final volume of 0.02 ml. The assay plates were incubated at RT with shaking for 1 h and the affinity beads were washed with wash buffer (1x PBS, 0.05% Tween 20). […] The kinase concentration in the eluates was measured by qRT-PCR.

ABL1 = target: T2, ABL1 (Homo sapiens, UniProt P00519); assay: KINOMEscan competition binding, ABL1; details: 10 µM compound; for remaining binding at 10 µM: lower = stronger binding, read-out: ABL1 %Ctrl @ 10000nM
T2 construct: DNA label for qPCR read-out (T7 phage fusion or DNA tag); purchased Eurofins DiscoverX Corporation; host or cells: T7 phage in E. coli (BL21-derived) or HEK-293
T2 sequence (P00519 whole entry, the tested form may be a part): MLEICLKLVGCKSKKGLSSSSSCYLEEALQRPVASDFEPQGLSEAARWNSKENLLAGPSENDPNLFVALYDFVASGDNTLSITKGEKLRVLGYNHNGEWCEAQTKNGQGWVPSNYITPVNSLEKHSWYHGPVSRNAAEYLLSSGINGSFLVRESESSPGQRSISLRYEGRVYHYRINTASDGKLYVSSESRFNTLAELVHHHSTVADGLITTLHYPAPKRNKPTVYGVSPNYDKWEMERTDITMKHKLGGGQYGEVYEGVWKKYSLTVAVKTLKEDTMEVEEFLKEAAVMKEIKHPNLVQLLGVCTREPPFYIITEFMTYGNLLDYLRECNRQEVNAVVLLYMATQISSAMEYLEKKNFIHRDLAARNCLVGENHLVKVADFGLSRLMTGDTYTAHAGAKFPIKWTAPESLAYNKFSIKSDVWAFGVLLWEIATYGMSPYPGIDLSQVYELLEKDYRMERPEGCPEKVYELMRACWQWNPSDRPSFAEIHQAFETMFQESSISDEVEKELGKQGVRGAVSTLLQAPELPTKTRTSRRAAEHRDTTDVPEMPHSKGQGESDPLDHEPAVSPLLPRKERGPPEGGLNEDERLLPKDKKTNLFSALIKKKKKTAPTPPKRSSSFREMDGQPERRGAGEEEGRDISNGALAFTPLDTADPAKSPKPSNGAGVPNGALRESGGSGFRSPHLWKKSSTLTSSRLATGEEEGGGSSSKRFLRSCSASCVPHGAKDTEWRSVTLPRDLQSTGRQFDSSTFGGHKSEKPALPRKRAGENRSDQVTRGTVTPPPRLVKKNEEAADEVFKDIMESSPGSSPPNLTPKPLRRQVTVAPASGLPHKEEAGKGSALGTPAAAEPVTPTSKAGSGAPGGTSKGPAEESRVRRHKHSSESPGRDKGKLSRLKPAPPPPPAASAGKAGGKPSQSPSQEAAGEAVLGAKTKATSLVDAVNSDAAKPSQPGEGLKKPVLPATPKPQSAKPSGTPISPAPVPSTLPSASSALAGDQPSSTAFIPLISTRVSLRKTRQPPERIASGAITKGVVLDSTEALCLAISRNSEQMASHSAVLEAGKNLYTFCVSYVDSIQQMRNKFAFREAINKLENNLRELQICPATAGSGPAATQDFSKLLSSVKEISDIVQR
Protocol: as §1, §2, §3, §4

RIOK3 = target: T3, RIOK3 (Homo sapiens, UniProt O14730); assay: KINOMEscan competition binding, RIOK3; details: 10 µM compound; for remaining binding at 10 µM: lower = stronger binding, read-out: RIOK3 %Ctrl @ 10000nM (POC)
T3 construct: DNA label for qPCR read-out (T7 phage fusion or DNA tag); purchased Eurofins DiscoverX Corporation; host or cells: T7 phage in E. coli (BL21-derived) or HEK-293
T3 sequence (O14730 1-519): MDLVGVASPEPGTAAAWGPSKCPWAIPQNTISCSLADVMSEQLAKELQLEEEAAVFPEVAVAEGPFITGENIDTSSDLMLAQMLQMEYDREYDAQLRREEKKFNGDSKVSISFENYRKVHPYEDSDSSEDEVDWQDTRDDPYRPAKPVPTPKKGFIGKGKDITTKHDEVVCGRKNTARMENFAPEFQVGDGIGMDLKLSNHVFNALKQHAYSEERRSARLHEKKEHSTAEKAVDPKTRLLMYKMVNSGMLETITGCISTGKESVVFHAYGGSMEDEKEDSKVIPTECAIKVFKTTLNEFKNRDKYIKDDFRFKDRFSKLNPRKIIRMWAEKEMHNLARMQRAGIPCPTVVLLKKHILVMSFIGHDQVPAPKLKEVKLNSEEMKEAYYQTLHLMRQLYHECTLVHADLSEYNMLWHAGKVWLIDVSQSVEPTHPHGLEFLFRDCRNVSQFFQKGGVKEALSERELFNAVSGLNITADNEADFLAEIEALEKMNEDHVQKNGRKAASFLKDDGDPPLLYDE
Protocol: as §1, §2, §3, §4

Structure (SMILES) | microglial activation (IBA1 staining) [1] | surface area of microglia (Imaris) [1] | inhibition at 10 µM (MTOR) | remaining binding at 10 µM (MTOR) | inhibition at 10 µM (ABL1) | remaining binding at 10 µM (ABL1) | inhibition at 10 µM (RIOK3) | remaining binding at 10 µM (RIOK3)
Cc1cccc(-c2cc3nccc(N4CCOCC4)c3s2)c1 [BK40197] | significant reduction in microglial activation | significantly reduced surface area of microglia | 90.7% | 9.3% | 60% | 40% | 95.2% | 4.8%
Cc1cccc(-c2cc3nccc(Nc4ccccc4)c3s2)c1 [BK40143] | significant reduction in microglial activation | significantly reduced surface area of microglia | 0% | 100% | 90% | 10% | 80% | 20%
